“And” between values parts separate entries of the source, which are not always exact repeats. Equal values may be shown once.

The source of these data is patent publication US20140336216A1, “PHYSIOLOGICAL LIGANDS FOR GPR139” (Janssen Pharmaceutica NV, priority 2013, published 2014).

For the first test, the target named is T1, GPR139 (Homo sapiens, UniProt Q6DWJ6).
T1 sequence (Q6DWJ6 1-353): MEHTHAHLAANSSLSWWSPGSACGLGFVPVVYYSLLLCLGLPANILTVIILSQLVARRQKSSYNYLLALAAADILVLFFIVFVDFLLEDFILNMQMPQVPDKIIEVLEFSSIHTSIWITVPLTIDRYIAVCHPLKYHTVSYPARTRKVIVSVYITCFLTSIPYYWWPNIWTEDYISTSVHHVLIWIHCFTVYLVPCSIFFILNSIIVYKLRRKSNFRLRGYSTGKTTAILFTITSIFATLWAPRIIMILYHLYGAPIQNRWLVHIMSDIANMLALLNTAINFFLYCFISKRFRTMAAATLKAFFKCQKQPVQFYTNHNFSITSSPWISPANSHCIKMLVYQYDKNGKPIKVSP
In words: Calcium mobilization assay (FLIPR), GPR139 expressed in HEK293 cells. Further details: expressed in transfected cells; host or cells: HEK293 (transient). The format is cell-based. Particulars: 300 μM; calcium mobilization as percentage of that observed for L-phenylalanine. The method, then:
FIG. 3A and FIG. 3B: Provides the results of experiments conducted to determine whether Trp and its derivatives (FIG. 3A) and Phe and its derivatives (FIG. 3B) stimulate Ca^2+ mobilization in HEK293 cells expressing GPR139.
The active compounds were also tested in a calcium mobilization assay (FLIPR® assay). For these experiments human GPR139 was transiently expressed in HEK293 cells and calcium mobilization was stimulated using L-Trp, L-Phe or their derivatives. […] The concentrations of L-Trp and L-Phe in many cell culture media (for instance DMEM is about 80 μM and 750 μM respectively) are close to the EC50 values of L-Trp and L-Phe for GPR139. […] This may explain why GPR139 appeared constitutively active when recombinantly expressed in mammalian cells.
About 300 additional phenylalanine analogues have been tested for GPR139 activation using a calcium mobilization (FLIPR®) assay. The results of these experiments indicate that many of these analogues can also activate GPR139. Table 4 lists certain phenylalanine analogues that have been determined to activate GPR139 by calcium mobilization at a concentration of 300 μM (calcium mobilization is expressed as percentage of that observed for L-phenylalanine).
Background: A change in cytosolic calcium serves as a functional read-out for many receptors and channels.
For `N[C@@H](Cc1ccc(Br)s1)C(=O)O` [2-(5-bromothienyl)-L-alanine], the “% L-phenylalanine at 300 μM (average), calcium mobilization” value (from here on “% L-phenylalanine … calcium mobilization”) was 151 % L-phenylalanine.

`CC(C)(C)OC(=O)N1Cc2ccccc2C[C@@H]1C(=O)O` [(3R)-2-tert-butoxycarbony 1-3,4-dihydro-1H-isoquinoline-3-carboxylic acid]: the “% L-phenylalanine … calcium mobilization” value turned out to be 155 % L-phenylalanine.

As to `O=C(O)[C@@H]1Cc2c([nH]c3ccccc23)CN1` [L-1,2,3,4-tetrahydronorharman-3-carboxylic acid], the “% L-phenylalanine … calcium mobilization” value is reported as 151 % L-phenylalanine.

`N[C@H](CCc1ccccc1)C(=O)O` [d-Homo-phenylalanine]: the “% L-phenylalanine … calcium mobilization” value is 105 % L-phenylalanine.

For the molecule S-(5-bromothienyl)-D-alanine, the “% L-phenylalanine … calcium mobilization” value was 154 % L-phenylalanine.

As for S-Nitro-L-phenylalanine, the “% L-phenylalanine … calcium mobilization” value is given as 150 % L-phenylalanine.

The same test, now with this note: HEK293, read-out: % L-phenylalanine at 300 μM (average), calcium mobilization.
Turning to `N[C@@H](Cc1ccc([N+](=O)[O-])cc1[N+](=O)[O-])C(=O)O` [2,4-Dinitro-L-phenylalanine], the Emax at 300 µM amounted to 95%.

Regarding `N[C@H](Cc1ccc(Br)cc1)C(=O)O` [4-Bromo-D-phenylalanine], the Emax at 300 µM turned out to be 139%.

As for `N[C@@H](Cc1ccc(Br)cc1)C(=O)O` [4-Bromo-L-phenylalanine], the Emax at 300 µM is 153%.

Staying with this test, now noted: HEK293; 300 μM; calcium mobilization as percentage of that observed for L-phenylalanine; read-out: % L-phenylalanine at 300 μM (average), calcium mobilization.
As to `N[C@H](Cc1c(F)c(F)c(F)c(F)c1F)C(=O)O` [2,3,4,5,6-P entafluoro-D-phenylalanine], the Emax at 300 µM is 145%.

Turning to `N[C@H](Cc1ccc(Cl)cc1Cl)C(=O)O` [2,4-Dichloro-D-phenylalanine], the Emax at 300 µM worked out at 135%.

On to `N[C@@H](Cc1ccc(Cl)cc1Cl)C(=O)O` [2,4-Dichloro-L-phenylalanine], for which the Emax at 300 µM amounted to 122%.

With `Cc1ccc(C[C@@H](N)C(=O)O)c(C)c1` [2,4-Dimethyl-D-phenylalanine], the Emax at 300 µM turned out to be 101%.

With `Cc1ccc(C[C@H](N)C(=O)O)c(C)c1` [2,4-Dimethyl-L-phenylalanine], the Emax at 300 µM came to 113%.

Regarding `N[C@H](Cc1ccccc1Br)C(=O)O` [2-Bromo-D-phenylalanine], the Emax at 300 µM was 135%.

Take `N[C@@H](Cc1ccccc1Br)C(=O)O` [2-Bromo-L-phenylalanine]: the Emax at 300 µM worked out at 168%.

In the case of `N[C@@H](Cc1ccccc1F)C(=O)O` [2-Fluoro-L-phenylalanine], the Emax at 300 µM was 119%.

With `Cc1ccccc1C[C@@H](N)C(=O)O` [2-Methyl-D-phenylalanine], the Emax at 300 µM worked out at 109%.

In the case of `Cc1ccccc1C[C@H](N)C(=O)O` [2-Methyl-L-phenylalanine], the Emax at 300 µM worked out at 134%.

`N[C@@H](Cc1ccccc1C(F)(F)F)C(=O)O` [2-Trifluoromethyl-L-phenylalanine]: the Emax at 300 µM was found to be 110%.

For the molecule `N[C@H](C(=O)O)C(c1ccccc1)c1ccccc1` [3,3-Diphenyl-L-alanine], the Emax at 300 µM was found to be 117%.

Regarding `N[C@H](Cc1ccc(Cl)c(Cl)c1)C(=O)O` [3,4-Dichloro-D-phenylalanine], the Emax at 300 µM stood at 149%.

On to `N[C@@H](Cc1ccc(Cl)c(Cl)c1)C(=O)O` [3,4-Dichloro-L-phenylalanine], for which the Emax at 300 µM is 149%.

Take `N[C@H](Cc1ccc(F)c(F)c1)C(=O)O` [3,4-Difluoro-D-phenylalanine]: the Emax at 300 µM is 121%.

Take `N[C@H](Cc1cc(F)cc(F)c1)C(=O)O` [3,5-Difluoro-D-phenylalanine]: the Emax at 300 µM was determined as 102%.

For `N[C@H](Cc1cccc(Br)c1)C(=O)O` [3-Bromo-D-phenylalanine], the Emax at 300 µM amounted to 172%.

With `N[C@@H](Cc1cccc(Br)c1)C(=O)O` [3-Bromo-L-phenylalanine], the Emax at 300 µM was found to be 167%.

Turning to `N[C@H](Cc1cccc(Cl)c1)C(=O)O` [3-Chloro-D-phenylalanine], the Emax at 300 µM turned out to be 147%.

In the case of `N[C@@H](Cc1cccc(Cl)c1)C(=O)O` [3-Chloro-L-phenylalanine], the Emax at 300 µM worked out at 145%.

With `N#Cc1cccc(C[C@@H](N)C(=O)O)c1` [3-Cyano-D-phenylalanine], the Emax at 300 µM amounted to 93%.

As for `N#Cc1cccc(C[C@H](N)C(=O)O)c1` [3-Cyano-L-phenylalanine], the Emax at 300 µM came out at 115%.

Regarding `N[C@H](Cc1cccc(F)c1)C(=O)O` [3-Fluoro-D-phenylalanine], the Emax at 300 µM is 94%.

As to `N[C@@H](Cc1cccc(F)c1)C(=O)O` [3-Fluoro-L-phenylalanine], the Emax at 300 µM was 114%.

Consider `Cc1cccc(C[C@@H](N)C(=O)O)c1` [3-Methyl-D-phenylalanine], for which the Emax at 300 µM came to 150%.

`Cc1cccc(C[C@H](N)C(=O)O)c1` [3-Methyl-L-phenylalanine]: the Emax at 300 µM worked out at 147%.

As to `N[C@H](Cc1cccc([N+](=O)[O-])c1)C(=O)O` [3-Nitro-D-Phenylalanin], the Emax at 300 µM was determined as 164%.

In the case of `N[C@@H](Cc1cccc([N+](=O)[O-])c1)C(=O)O` [3-Nitro-L-phenylalanine], the Emax at 300 µM came out at 131%.

For the molecule `N[C@@H](Cc1cccc(C(F)(F)F)c1)C(=O)O` [3-Trifluoromethyl-L-phenylalanine], the Emax at 300 µM was 133%.

In the case of `N[C@H](Cc1ccc(Cl)cc1)C(=O)O` [4-Chloro-D-phenylalanine], the Emax at 300 µM was 110%.

Turning to `N[C@@H](Cc1ccc(Cl)cc1)C(=O)O` [4-Chloro-L-phenylalanine], the Emax at 300 µM stood at 146%.

Take `N[C@H](Cc1ccc(F)cc1)C(=O)O` [4-Fluoro-D-phenylalanine]: the Emax at 300 µM came out at 91%.

With `N[C@@H](Cc1ccc(F)cc1)C(=O)O` [4-Fluoro-L-phenylalanine], the Emax at 300 µM was 132%.

`N[C@H](Cc1ccc(I)cc1)C(=O)O` [4-Iodo-D-phenylalanine]: the Emax at 300 µM came to 125%.

For the molecule `N[C@@H](Cc1ccc(I)cc1)C(=O)O` [4-Iodo-L-phenylalanine], the Emax at 300 µM was found to be 116%.

As for `COc1ccc(C[C@H](N)C(=O)O)cc1` [4-Methoxy-L-phenylalanine], the Emax at 300 µM is 128%.

Regarding `Cc1ccc(C[C@@H](N)C(=O)O)cc1` [4-Methyl-D-phenylalanine], the Emax at 300 µM is 102%.

For the molecule `Cc1ccc(C[C@H](N)C(=O)O)cc1` [4-Methyl-L-phenylalanine], the Emax at 300 µM turned out to be 149%.

For the molecule `N[C@H](Cc1ccc([N+](=O)[O-])cc1)C(=O)O` [4-Nitro-D-phenylalanine], the Emax at 300 µM was 111%.

On to `N[C@@H](Cc1ccc(C(F)(F)F)cc1)C(=O)O` [4-Trifluoromethyl-L-phenylalanine], for which the Emax at 300 µM is 150%.

Consider `CC(C)(C)c1ccc(C[C@H](N)C(=O)O)cc1` [4-tert-Butyl-L-phenylalanine], for which the Emax at 300 µM stood at 115%.

For `N[C@H](CCCc1ccccc1)C(=O)O` [D-2-Amino-5-phenyl-pentanoic acid], the Emax at 300 µM is 129%.

Consider `C[C@](N)(Cc1ccc(F)cc1)C(=O)O` [α-methyl-4-Fluoro-L-phenylalanine], for which the Emax at 300 µM was 125%.

The next test concerns GO2Q alone. The test can be described thus: GTPγS binding assay, control COS7 membranes expressing GO2Q alone (Ct-GO2Q). In kind it is biochemical. As to conditions: 1 mM final concentration; COS7 membranes expressing GO2Q alone; single wells of triplicate. The method, then:
(§1) In order identify the ligands for GPR139 two improvements in the detection assay were made to allow for the ligands to be detected. First, we chose to use a GTPγS binding assay instead of using live cultured cells. The GTPγS binding assay is a cell free system that uses the cell membrane of the cell(s) of interest rather than the live cell(s). One advantage of this assay is that potential ligands present in the cell culture media are washed away when the cell membrane is prepared. This reduces the basal level of signal and increase the chance of detecting receptor ligands when assessing compounds that activate the receptor. Second, a GO2Q chimeric G-protein was created to be co-expressed with GPR139 in order to increase the signal-to-noise ratio in the GTPγS binding assay. Historically, the Gi, Go coupled GPCRs offer much greater signal-to-noise ratio in GTPγS binding studies. For Gs and Gq coupled GPCRs, although ligand-stimulated specific signals can be detected in a GTPγS binding assay, the signal-to-noise ratios are often very small. To address this a chimeric GO2-Gq chimeric G-protein, GO2Q, with the N-terminus from Go2 protein and the C-terminus from Gq protein.
(§2) To test for compounds that activate GPR139, different amino acids and their derivatives (Table 2) were tested as ligands in the GTPγS binding assay using cell membranes from COS7 cells co-expressing GPR139 and GO2Q. Cell membrane from COS7 cells expressing GO2Q alone or co-expressing other GPCRs were also tested in GTPγS binding assay in parallel as controls. Each compound was tested in triplicate.
For orientation: GTPγS resists hydrolysis and so accumulates on activated G proteins.
Take `CNCC(O)c1ccc(O)c(O)c1` (stereo not drawn) [Adrenaline]: the “Activation levels (GTPγS binding), Ct-GO2Q” value was 2240 and 2117 and 2045.

A further test has as its target T1, GPR139. In words: GTPγS binding assay, single-concentration screen, COS7 membranes co-expressing GPR139 and GO2Q. In kind it is biochemical. Further details: expressed in transfected cells; host or cells: COS7 (membranes). Particulars: 1 mM final concentration; COS7 membranes co-expressing GPR139 and GO2Q; single wells of triplicate. On the procedure:
as §1, §2
Regarding `CNCC(O)c1ccc(O)c(O)c1` (stereo not drawn) [Adrenaline], the “Activation levels of GPR139 (GTPγS binding), GPR139-GO2Q” value was 2721 and 2624 and 2670.
